Test system: human JAK1 (a.a. 837-1142)
Test: In vitro JAK kinase assay (HTRF), JAK1
Assay type: biochemical
Conditions: ratio of IC50s, 1 mM ATP
Protocol: Compounds herein were tested for inhibitory activity of JAK targets according to the following in vitro assay described in Park et al., Analytical Biochemistry 1999, 269, 94-104. The catalytic domains of human JAK1 (a.a. 837-1142), JAK2 (a.a. 828-1132) and JAK3 (a.a. 781-1124) were expressed using baculovirus in insect cells and purified. The catalytic activity of JAK1, JAK2 or JAK3 was assayed by measuring the phosphorylation of a biotinylated peptide. The phosphorylated peptide was detected by homogenous time resolved fluorescence (HTRF). IC50s of compounds were measured for each kinase in the 40 μL reactions that contain the enzyme, ATP and 500 nM peptide in 50 mM Tris (pH 7.8) buffer with 100 mM NaCl, 5 mM DTT, and 0.1 mg/mL (0.01%) BSA. For the 1 mM IC50 measurements, ATP concentration in the reactions was 1 mM. Reactions were carried out at room temperature for 1 hour and then stopped with 20 μL 45 mM EDTA, 300 nM SA-APC, 6 nM Eu-Py20 in assay buffer (Perkin Elmer, Boston, Mass.). Binding to the Europium labeled antibody took place for 40 minutes and HTRF signal was measured on a PHERA star plate reader (BMG, Cary, N.C.). The Example compounds were each tested in the Example A assay (see Table 1 for data for the compounds of the examples as tested by the assay of Example A at 1 mM ATP).

Q: With `CC(=O)NC[C@H]1CC[C@H](n2c([C@@H](C)O)nc3cnc4ccsc4c32)CC1` [Example 79, N-[(trans-4-{2-[(1R)-1-Hydroxyethyl]-1H-imidazo[4,5-d]thieno[3,2-b]pyridin-1-yl}cyclohexyl)methyl]acetamide] as the molecule, how does the JAK2/JAK1 read?
A: The JAK2/JAK1 was greater than 10.

Q: For `C[C@@H](O)c1nc2cnc3ccsc3c2n1C1CCN(CCCC(F)(F)F)CC1` [Example 60, (1R)-1-{1-[1-(4,4,4-Trifluorobutyl)piperidin-4-yl]-1H-imidazo[4,5-d]thieno[3,2-b]pyridin-2-yl}ethanol], which JAK2/JAK1 is on record?
A: Its JAK2/JAK1 is greater than 10.

Q: For `CCCOC(=O)NC[C@H]1CC[C@H](n2c([C@@H](C)O)nc3cnc4ccsc4c32)CC1` [Example 83, Propyl [(trans-4-{2-[(1R)-1-hydroxyethyl]-1H-imidazo[4,5-d]thieno[3,2-b]pyridin-1-yl}cyclohexyl)methyl]carbamate], which JAK2/JAK1 is on record?
A: The JAK2/JAK1 was greater than 10.

Q: `CC(=O)NC(C)c1nc2cnc3ccsc3c2n1[C@H]1CC[C@H](CC#N)OC1` (stereo partly drawn) [Example 69, N-(1-{1-[(3S,6R)-6-(Cyanomethyl)tetrahydro-2H-pyran-3-yl]-1H-imidazo[4,5-d]thieno[3,2-b]pyridin-2-yl}ethyl) acetamide] was tested. Which JAK2/JAK1 did it give?
A: Its JAK2/JAK1 is greater than 10.

Q: How did the JAK2/JAK1 turn out when `C[C@@H](O)c1nc2cnc3ccsc3c2n1[C@H]1CC[C@H](CNC(=O)N(C)C)CC1` [Example 81, N′-[(trans-4-{2-[(1R)-1-Hydroxyethyl]-1H-imidazo[4,5-d]thieno[3,2-b]pyridin-1-yl}cyclohexyl)methyl]-N,N-dimethylurea] was run?
A: The JAK2/JAK1 was greater than 10.

Q: For `C[C@@H](O)c1nc2cnc3ccsc3c2n1C1CCN(CC#N)CC1.O=C(O)C(F)(F)F` [Example 61, (4-{2-[(1R)-1-Hydroxyethyl]-1H-imidazo[4,5-d]thieno[3,2-b]pyridin-1-yl}piperidin-1-yl)acetonitrile trifluoroacetate], which JAK2/JAK1 is on record?
A: Its JAK2/JAK1 is greater than 10.

Q: With `COC(=O)NC[C@H]1CC[C@H](n2c([C@@H](C)O)nc3cnc4ccsc4c32)CC1` [Example 78, Methyl [(trans-4-{2-[(1R)-1-hydroxyethyl]-1H-imidazo[4,5-d]thieno[3,2-b]pyridin-1-yl}cyclohexyl)methyl]carbamate] as the molecule, how does the JAK2/JAK1 read?
A: The JAK2/JAK1 was greater than 10.

Q: Which JAK2/JAK1 does the source give for `C[C@@H](O)c1nc2cnc3ccsc3c2n1[C@H]1CC[C@@H](C#N)CC1` [Example 7, cis-4-{2-[(1R)-1-Hydroxyethyl]-1H-imidazo[4,5-d]thieno[3,2-b]pyridin-1-yl}cyclohexanecarbonitrile] here?
A: Its JAK2/JAK1 is greater than 10.

Q: How did the JAK2/JAK1 turn out when `C[C@@H](O)c1nc2cnc3ccsc3c2n1[C@H]1CCN(C(=O)CC#N)C1` [Example 63, 3-((3S)-3-{2-[(1R)-1-Hydroxyethyl]-1H-imidazo[4,5-d]thieno[3,2-b]pyridin-1-yl}pyrrolidin-1-yl)-3-oxopropanenitrile] was run?
A: Its JAK2/JAK1 is greater than 6.

Q: How did the JAK2/JAK1 turn out when `C[C@H](O)c1nc2cnc3ccsc3c2n1[C@H]1CC[C@H](CC#N)OC1` [Example 45, ((2R,5S)-5-{2-[(1S)-1-Hydroxyethyl]-1H-imidazo[4,5-d]thieno[3,2-b]pyridin-1-yl}tetrahydro-2H-pyran-2-yl)acetonitrile] was run?
A: The JAK2/JAK1 was greater than 10.

Q: `CC(F)c1nc2cnc3ccsc3c2n1[C@H]1CC[C@H](CC#N)OC1` (stereo partly drawn) [Example 71, {(2R,5S)-5-[2-(1-Fluoroethyl)-1H-imidazo[4,5-d]thieno[3,2-b]pyridin-1-yl]tetrahydro-2H-pyran-2-yl}acetonitrile] was tested. Which JAK2/JAK1 did it give?
A: Its JAK2/JAK1 is greater than 10.

Q: With `CC(C)OC(=O)NC[C@H]1CC[C@H](n2c([C@@H](C)O)nc3cnc4ccsc4c32)CO1` [Example 76, Isopropyl [((2R,5S)-5-{2-[(1R)-1-hydroxyethyl]-1H-imidazo[4,5-d]thieno[3,2-b]pyridin-1-yl}tetrahydro-2H-pyran-2-yl)methyl]carbamate] as the molecule, how does the JAK2/JAK1 read?
A: The JAK2/JAK1 was greater than 10.

Q: `C[C@@H](O)c1nc2cnc3ccsc3c2n1[C@H]1CCCN(C(=O)CCc2cn[nH]c2)C1` [Example 53, (1R)-1-(1-{(3S)-1-[3-(1H-Pyrazol-4-yl)propanoyl]piperidin-3-yl}-1H-imidazo[4,5-d]thieno[3,2-b]pyridin-2-yl)ethanol] was tested. Which JAK2/JAK1 did it give?
A: Its JAK2/JAK1 is greater than 10.

Q: For `C[C@@H](O)c1nc2cnc3ccsc3c2n1[C@H]1CCN(CCC#N)C1` [Example 62, 3-((3S)-3-{2-[(1R)-1-Hydroxyethyl]-1H-imidazo[4,5-d]thieno[3,2-b]pyridin-1-yl}pyrrolidin-1-yl)propanenitrile], which JAK2/JAK1 is on record?
A: Its JAK2/JAK1 is greater than 10.

Q: For `CCNC(=O)C[C@H]1CC[C@H](n2c([C@@H](C)O)nc3cnc4ccsc4c32)CC1` [Example 31, N-Ethyl-2-(trans-4-{2-[(1R)-1-hydroxyethyl]-1H-imidazo[4,5-d]thieno[3,2-b]pyridin-1-yl}cyclohexyl)acetamide], which JAK2/JAK1 is on record?
A: Its JAK2/JAK1 is greater than 10.

Q: `CCc1nc2cnc3ccsc3c2n1[C@H]1CC[C@H](CC#N)OC1` [Example 39, [(2R,5S)-5-(2-Ethyl-1H-imidazo[4,5-d]thieno[3,2-b]pyridin-1-yl)tetrahydro-2H-pyran-2-yl]acetonitrile] was tested. Which JAK2/JAK1 did it give?
A: Its JAK2/JAK1 is greater than 10.

Q: Which JAK2/JAK1 does the source give for `CC(N)c1nc2cnc3ccsc3c2n1[C@H]1CC[C@H](CC#N)OC1.O=C(O)C(F)(F)F` (stereo partly drawn) [Example 68, {(2R,5S)-5-[2-(1-Aminoethyl)-1H-imidazo[4,5-d]thieno[3,2-b]pyridin-1-yl]tetrahydro-2H-pyran-2-yl}acetonitrile Trifluoro Acetate] here?
A: Its JAK2/JAK1 is greater than 10.

Q: For `C[C@@H](O)c1nc2cnc3ccsc3c2n1[C@H]1CC[C@H](CNS(C)(=O)=O)CC1` [Example 80, N-[(trans-4-{2-[(1R)-1-Hydroxyethyl]-1H-imidazo[4,5-d]thieno[3,2-b]pyridin-1-yl}cyclohexyl)methyl]methanesulfonamide], which JAK2/JAK1 is on record?
A: Its JAK2/JAK1 is greater than 10.

Q: How did the JAK2/JAK1 turn out when `CC(C)OC(=O)NC[C@H]1CC[C@H](n2c([C@@H](C)O)nc3cnc4ccsc4c32)CC1` [Example 84, Isopropyl [(trans-4-{2-[(1R)-1-hydroxyethyl]-1H-imidazo[4,5-d]thieno[3,2-b]pyridin-1-yl}cyclohexyl)methyl]carbamate] was run?
A: Its JAK2/JAK1 is greater than 10.

Q: With `C[C@@H](O)c1nc2cnc3ccsc3c2n1C1CCN(CCC#N)CC1` [Example 16, 3-(4-{2-[(1R)-1-Hydroxyethyl]-1H-imidazo[4,5-d]thieno[3,2-b]pyridin-1-yl}piperidin-1-yl)propanenitrile] as the molecule, how does the JAK2/JAK1 read?
A: The JAK2/JAK1 was greater than 10.

Q: `CCC(=O)NC[C@H]1CC[C@H](n2c(CC#N)nc3cnc4ccsc4c32)CC1` [Example 89, N-({trans-4-[2-(Cyanomethyl)-1H-imidazo[4,5-d]thieno[3,2-b]pyridin-1-yl]cyclohexyl}methyl)propanamide] was tested. Which JAK2/JAK1 did it give?
A: The JAK2/JAK1 was greater than 10.

Q: For `Cc1nc2cnc3ccsc3c2n1[C@H]1CC[C@H](CC#N)OC1` [Example 38, [(2R,5S)-5-(2-Methyl-1H-imidazo[4,5-d]thieno[3,2-b]pyridin-1-yl)tetrahydro-2H-pyran-2-yl]acetonitrile], which JAK2/JAK1 is on record?
A: The JAK2/JAK1 was greater than 10.

Q: `C[C@@H](O)c1nc2cnc3ccsc3c2n1[C@H]1CC[C@H](CC#N)OC1` [Example 20, ((2R,5S)-5-{2-[(1R)-1-Hydroxyethyl]-1H-imidazo[4,5-d]thieno[3,2-b]pyridin-1-yl}tetrahydro-2H-pyran-2-yl)acetonitrile] was tested. Which JAK2/JAK1 did it give?
A: The JAK2/JAK1 was greater than 10.

Q: How did the JAK2/JAK1 turn out when `CC(C)OC(=O)NC[C@H]1CC[C@H](n2c(CC#N)nc3cnc4ccsc4c32)CC1` [Example 88, Isopropyl ({trans-4-[2-(cyanomethyl)-1H-imidazo[4,5-d]thieno[3,2-b]pyridin-1-yl]cyclohexyl}methyl)carbamate] was run?
A: Its JAK2/JAK1 is greater than 10.

Q: `C[C@@H](O)c1nc2cnc3ccsc3c2n1[C@H]1CCCN(C(=O)CC#N)C1.O=C(O)C(F)(F)F` [Example 51, 3-((3S)-3-{2-[(1R)-1-Hydroxyethyl]-1H-imidazo[4,5-d]thieno[3,2-b]pyridin-1-yl}piperidin-1-yl)-3-oxopropanenitrile trifluoroacetate] was tested. Which JAK2/JAK1 did it give?
A: Its JAK2/JAK1 is greater than 10.

Q: How did the JAK2/JAK1 turn out when `CC(CC(=O)N1CCC[C@H](n2c([C@@H](C)O)nc3cnc4ccsc4c32)C1)c1ccccc1` (stereo partly drawn) [Example 55, (1R)-1-{1-[(3S)-1-(3-Phenylbutanoyl)piperidin-3-yl]-1H-imidazo[4,5-d]thieno[3,2-b]pyridin-2-yl}ethanol] was run?
A: Its JAK2/JAK1 is greater than 10.

Q: With `N#CC[C@H]1CC[C@H](n2c(CO)nc3cnc4ccsc4c32)CO1` [Example 91, {(2R,5S)-5-[2-(Hydroxymethyl)-1H-imidazo[4,5-d]thieno[3,2-b]pyridin-1-yl]tetrahydro-2H-pyran-2-yl}acetonitrile] as the molecule, how does the JAK2/JAK1 read?
A: Its JAK2/JAK1 is greater than 10.

Q: Which JAK2/JAK1 does the source give for `CCOC(=O)N1CCC[C@H](n2c([C@@H](C)O)nc3cnc4ccsc4c32)C1` [Example 50, Ethyl (3S)-3-{2-[(1R)-1-hydroxyethyl]-1H-imidazo[4,5-d]thieno[3,2-b]pyridin-1-yl}piperidine-1-carboxylate] here?
A: The JAK2/JAK1 was greater than 10.

Q: With `C[C@@H](O)c1nc2cnc3ccsc3c2n1[C@H]1CCCN(C(=O)CCc2cccnc2)C1` [Example 54, (1R)-1-{1-[(3S)-1-(3-Pyridin-3-ylpropanoyl)piperidin-3-yl]-1H-imidazo[4,5-d]thieno[3,2-b]pyridin-2-yl}ethanol] as the molecule, how does the JAK2/JAK1 read?
A: Its JAK2/JAK1 is greater than 10.

Q: For `C[C@@H](O)c1nc2cnc3ccsc3c2n1[C@H]1CCCN(C(=O)CCC#N)C1` [Example 58, 4-((3S)-3-{2-[(1R)-1-Hydroxyethyl]-1H-imidazo[4,5-d]thieno[3,2-b]pyridin-1-yl}piperidin-1-yl)-4-oxobutanenitrile], which JAK2/JAK1 is on record?
A: The JAK2/JAK1 was greater than 10.

Q: Which JAK2/JAK1 does the source give for `C[C@@H](O)c1nc2cnc3ccsc3c2n1[C@H]1CC[C@H](NCC(F)(F)F)CC1` [Example 4, (1R)-1-(1-{trans-4-[(2,2,2-Trifluoroethyl)amino]cyclohexyl}-1H-imidazo[4,5-d]thieno[3,2-b]pyridin-2-yl)ethanol] here?
A: The JAK2/JAK1 was greater than 10.
